Source: ChEMBL document CHEMBL6103599, “Design of Potent Menin-KMT2A Interaction Inhibitors with Improved In Vitro ADME Properties and Reduced hERG Affinity” (ACS Med Chem Lett, 2025)

What was measured:
MV4-11 = experiment: Antiproliferative activity against human MV4-11 cells assessed as cell growth inhibition measured after 7 days by CellTiter-Glo assay; type: functional, cell-based; details: MV4-11, 168 h
[1] = Inhibition of His6-tagged MEN1 458-551 deletion A5T mutant (2 to 583 residues)/MLL (unknown origin) transfected in Escherichia coli BL21 (DE3) protein-protein interaction by TR-FRET assay; design: species or system Homo sapiens
[2] = molecular target: Voltage-gated inwardly rectifying potassium channel KCNH2 (Homo sapiens, UniProt Q12809); experiment: Inhibition of hERG expressed in CHO cells; type: toxicity, cell-based
Sequence of Voltage-gated inwardly rectifying potassium channel KCNH2 (Q12809 whole entry): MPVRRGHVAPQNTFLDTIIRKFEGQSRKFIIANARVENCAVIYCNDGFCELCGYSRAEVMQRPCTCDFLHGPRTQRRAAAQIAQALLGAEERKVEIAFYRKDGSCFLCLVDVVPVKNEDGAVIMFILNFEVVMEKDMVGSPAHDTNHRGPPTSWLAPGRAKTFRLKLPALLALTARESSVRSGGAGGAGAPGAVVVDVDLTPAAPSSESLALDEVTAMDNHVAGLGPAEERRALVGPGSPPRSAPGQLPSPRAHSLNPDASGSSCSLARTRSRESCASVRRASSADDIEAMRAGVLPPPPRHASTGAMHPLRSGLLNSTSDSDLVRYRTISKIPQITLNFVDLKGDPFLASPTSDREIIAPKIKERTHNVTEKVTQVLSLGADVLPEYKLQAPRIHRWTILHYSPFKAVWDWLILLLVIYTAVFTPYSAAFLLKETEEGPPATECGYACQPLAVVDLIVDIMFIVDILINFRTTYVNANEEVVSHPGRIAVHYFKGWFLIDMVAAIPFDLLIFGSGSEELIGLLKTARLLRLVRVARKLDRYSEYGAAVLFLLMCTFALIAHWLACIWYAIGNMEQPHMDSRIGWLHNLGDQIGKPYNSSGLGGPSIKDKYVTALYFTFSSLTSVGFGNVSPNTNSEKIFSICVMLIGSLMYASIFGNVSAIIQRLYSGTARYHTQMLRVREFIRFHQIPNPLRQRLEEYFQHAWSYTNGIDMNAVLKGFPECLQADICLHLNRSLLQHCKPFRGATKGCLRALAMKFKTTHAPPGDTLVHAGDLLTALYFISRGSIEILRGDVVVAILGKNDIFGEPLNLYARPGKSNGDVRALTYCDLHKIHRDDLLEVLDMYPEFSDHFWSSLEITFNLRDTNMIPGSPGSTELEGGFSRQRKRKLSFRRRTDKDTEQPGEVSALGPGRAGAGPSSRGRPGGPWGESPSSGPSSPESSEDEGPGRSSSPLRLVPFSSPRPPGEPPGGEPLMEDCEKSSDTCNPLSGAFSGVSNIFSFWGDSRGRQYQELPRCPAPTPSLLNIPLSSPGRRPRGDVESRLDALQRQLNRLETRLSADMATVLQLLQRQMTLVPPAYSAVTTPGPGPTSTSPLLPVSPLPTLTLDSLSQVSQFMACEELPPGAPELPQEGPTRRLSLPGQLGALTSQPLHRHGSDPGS

HL-60 = experiment: Cytotoxicity against human HL-60 cells; type: functional, cell-based
[3] = Metabolic stability in human hepatocytes assessed as clearance by LC-MS analysis; type: ADME, cell-based, Hepatocyte; details: read-out: CLH
[4] = Apparent permeability across apical to basolateral side in MDR1 knockout dog MDCKII cells incubated for 2 hrs by LC-MS/MS analysis; type: ADME, cell-based, Canis lupus familiaris, MDCK-II; details: MDCK
[5] = Volume of distribution at steady state in male CD-1 mouse at 1 mg/kg, iv measured after 8 hrs by LC-MS/MS analysis; type: ADME, organism-based; details: in vivo, read-out: Vdss
[6] = Clearance in male CD-1 mouse at 1 mg/kg, iv measured after 8 hrs by LC-MS/MS analysis; type: ADME, organism-based; details: in vivo
[7] = AUCinfinity in male CD-1 mouse at 1 mg/kg, iv measured after 8 hrs by LC-MS/MS analysis; type: ADME, organism-based; details: in vivo
[8] = Cmax in male CD-1 mouse at 30 mg/kg, po measured after 8 hrs by LC-MS/MS analysis; type: ADME, organism-based; details: in vivo
Cytochrome P450 3A4 = Cytochrome P450 3A4 (Homo sapiens, UniProt P08684); experiment: Inhibition of CYP3A4 (unknown origin) using midazolam as substrate; type: ADME
Sequence of Cytochrome P450 3A4 (P08684 whole entry): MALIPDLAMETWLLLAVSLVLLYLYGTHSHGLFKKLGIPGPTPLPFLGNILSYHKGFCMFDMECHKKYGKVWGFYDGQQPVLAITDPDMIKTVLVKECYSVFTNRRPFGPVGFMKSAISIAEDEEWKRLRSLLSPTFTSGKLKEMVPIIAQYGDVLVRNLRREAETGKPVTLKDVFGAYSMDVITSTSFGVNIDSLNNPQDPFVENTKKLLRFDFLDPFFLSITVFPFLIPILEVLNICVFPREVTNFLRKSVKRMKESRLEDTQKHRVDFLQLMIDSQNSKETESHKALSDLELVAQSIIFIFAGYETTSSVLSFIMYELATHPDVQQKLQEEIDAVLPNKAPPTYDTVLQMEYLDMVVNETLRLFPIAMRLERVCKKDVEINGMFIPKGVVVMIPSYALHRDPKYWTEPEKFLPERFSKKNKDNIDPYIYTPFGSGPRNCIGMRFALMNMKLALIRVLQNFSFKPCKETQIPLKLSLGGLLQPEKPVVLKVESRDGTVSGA

[9] = Oral bioavailability in male CD-1 mouse at 30 mg/kg measured after 8 hrs by LC-MS/MS analysis; type: ADME, organism-based; details: in vivo
[10] = Half life in male CD-1 mouse at 1 mg/kg, iv measured after 8 hrs by LC-MS/MS analysis; type: ADME, organism-based; details: in vivo
[11] = Hepatic extraction ratio in male CD-1 mouse at 1 mg/kg, iv measured after 8 hrs by LC-MS/MS analysis; type: ADME, organism-based; details: in vivo, read-out: ERH
[12] = Drug excretion in male Sprague-Dawley rat urine at 3 mg/kg, iv measured after 8 hrs by LC-MS/MS analysis; type: ADME, organism-based; details: read-out: Drug excretion
[13] = Binding affinity to His6-tagged MEN1 458-551 deletion A5T mutant (unknown origin) assessed as dissociation constant by SPR analysis; design: species or system Homo sapiens
[14] = Metabolic stability in human liver microsomes assessed as clearance incubated for 20 mins by LC-MS/MS analysis; type: ADME, Microsome; details: read-out: CLH

SMILES | IC50 (MV4-11) | IC50 [1] | IC50 [2] | IC50 (HL-60) | CLint scaled [3] | Papp A→B at 2 h [4] | also measured
CCN(C(=O)c1cc(F)ccc1Oc1cncnc1N1CC2(CCN(CC(C)(C)C)CC2)C1)C(C)C | 72 nM | 12 nM | 2900 nM | > 5000 nM |  |  | 
CCN(C(=O)c1cc(F)ccc1Oc1nncnc1N1CC2(CCN(CC3(SC)CC3)CC2)C1)C(C)C | 12 nM | 8 nM | 75000 nM |  | 14 mL/min/kg | 42 ×10⁻⁶ cm/s | 
CCC1(CN2CCC3(CC2)CN(c2ncnnc2Oc2ccc(F)cc2CN2C(=O)COC[C@H]2C)C3)CC1 | 21 nM | 5 nM |  |  | 6 mL/min/kg | 29 ×10⁻⁶ cm/s | 
CC1(CN2CCC3(CC2)CN(c2ncnnc2Oc2ccc(F)cc2C(=O)N2C4CCC2COC4)C3)CC1 | 74 nM | 8 nM | 65000 nM |  | 5 mL/min/kg | 3 ×10⁻⁶ cm/s | Vd [5]: 4.34 L/kg; clearance [6]: 48.7 mL/min/kg; AUC(0-inf) [7]: 342 ng·h/mL; Cmax [8]: 5000 ng/mL; IC50 (Cytochrome P450 3A4): > 50000 nM; bioavailability [9]: 74%; half-life [10]: 1.68 h; hepatic extraction ratio at 8 h [11]: 0.541; dose excreted at 8 h [12]: 22%
CSC1(CN2CCC3(CC2)CN(c2ncnnc2Oc2ccc(F)cc2CN2C(=O)COC[C@H]2C)C3)CC1 | 13 nM | 4 nM |  |  | 8 mL/min/kg | 8 ×10⁻⁶ cm/s | 
CCN(C(=O)c1cc(F)ccc1Oc1cncnc1N1CC2(CCN(C3CCCC3)CC2)C1)C(C)C | 166 nM | 18 nM |  | > 5000 nM |  |  | 
CCN(C(=O)c1cc(F)ccc1Oc1cncnc1N1CC2(CCN(CC3(C)CC3)CC2)C1)C(C)C | 22 nM | 7 nM | 10800 nM | > 5000 nM | 11 mL/min/kg | 26 ×10⁻⁶ cm/s | 
CC1(CN2CCC3(CC2)CN(c2ncnnc2Oc2ccc(F)cc2CN2CCOCC2=O)C3)CC1 | 190 nM | 5 nM |  |  | 6 mL/min/kg | 8 ×10⁻⁶ cm/s | 
CCN(C(=O)c1cc(F)ccc1Oc1cncnc1N1CC2(CCN(C(=O)C34CC5CC(CC3C5)C4)CC2)C1)C(C)C | 58 nM | 8 nM | > 100000 nM | > 5000 nM |  |  | 
CCN(C(=O)c1cc(F)ccc1Oc1cncnc1N1CC2(CCN(CC34CC(C3)C4)CC2)C1)C(C)C | 20 nM | 13 nM |  | > 5000 nM |  |  | 
C[C@@H]1COCC(=O)N1Cc1cc(F)ccc1Oc1nncnc1N1CC2(CCN(CC3(C)CC3)CC2)C1 | 19 nM | 4 nM |  |  | 4 mL/min/kg | 7 ×10⁻⁶ cm/s | Kd [13]: 0.05 nM
CC1(CN2CCC3(CC2)CN(c2ncnnc2Oc2ccc(F)cc2C(=O)N2CCOCC2)C3)CC1 | 314 nM | 62 nM | 46000 nM |  | 6 mL/min/kg | 4 ×10⁻⁶ cm/s | 
CCN(C(=O)c1cc(F)ccc1Oc1cncnc1N1CC2(CCN(CC3CCCC3)CC2)C1)C(C)C | 102 nM | 4 nM |  | > 5000 nM |  |  | 
CCN(C(=O)c1cc(F)ccc1Oc1cncnc1N1CC2(CCN(C(C)=O)CC2)C1)C(C)C | > 5000 nM | 160 nM |  | > 5000 nM |  |  | 
CCN(C(=O)c1cc(F)ccc1Oc1nncnc1N1CC2(CCN(CC3(C)CC3)CC2)C1)C(C)C | 19 nM | 10 nM | 28000 nM |  | 6 mL/min/kg | 35 ×10⁻⁶ cm/s | Vd [5]: 14.1 L/kg; clearance [6]: 129 mL/min/kg; AUC(0-inf) [7]: 92 ng·h/mL; half-life [10]: 2.22 h
CSC1(CN2CCC3(CC2)CN(c2ncnnc2Oc2ccc(F)cc2CN2CCCC2=O)C3)CC1 | 345 nM | 5 nM |  |  | 11 mL/min/kg | 6 ×10⁻⁶ cm/s | 
CC(C)C1(CN2CCC3(CC2)CN(c2ncnnc2Oc2ccc(F)cc2CN2C(=O)COC[C@H]2C)C3)CC1 | 19 nM | 4 nM |  |  | 10 mL/min/kg | 35 ×10⁻⁶ cm/s | Vd [5]: 5.44 L/kg; clearance [6]: 130 mL/min/kg; AUC(0-inf) [7]: 128 ng·h/mL; half-life [10]: 0.76 h
CCN(C(=O)c1cc(F)ccc1Oc1nnccc1N1CC2(CCN(CC3(C)CC3)CC2)C1)C(C)C | 58 nM | 11 nM | 28000 nM |  | 8 mL/min/kg | 7 ×10⁻⁶ cm/s | 
CCN(C(=O)c1cc(F)ccc1Oc1cncnc1N1CC2(CCN(CC(C)C)CC2)C1)C(C)C | 416 nM | 66 nM |  | > 5000 nM |  |  | 
CCN(C(=O)c1cc(F)ccc1Oc1cncnc1N1CC2(CCN(CC3CCCCC3)CC2)C1)C(C)C | 23 nM | 8 nM | 3500 nM | > 5000 nM |  |  | 
C[C@@H]1CCCCN1C(=O)c1cc(F)ccc1Oc1nncnc1N1CC2(CCN(CC3(C)CC3)CC2)C1 | 145 nM | 20 nM |  |  | 9 mL/min/kg | 21 ×10⁻⁶ cm/s | 
CCN(C(=O)c1cc(F)ccc1Oc1cncnc1N1CC2(CCN(C[C@@H](O)C(F)(F)F)CC2)C1)C(C)C | 502 nM | 33 nM |  | > 5000 nM |  |  | 
CCN(C(=O)c1cc(F)ccc1Oc1cncnc1N1CC2(CCN(Cc3ccc(C#N)cc3)CC2)C1)C(C)C | 53 nM | 12 nM | < 1000 nM | > 5000 nM |  |  | 
C[C@@H]1COC[C@H](C)N1C(=O)c1cc(F)ccc1Oc1nncnc1N1CC2(CCN(CC3(C)CC3)CC2)C1 | 65 nM | 9 nM |  |  | 5 mL/min/kg | 13 ×10⁻⁶ cm/s | 
C[C@@H]1CCCN1C(=O)c1cc(F)ccc1Oc1nncnc1N1CC2(CCN(CC3(C)CC3)CC2)C1 | 231 nM | 6 nM |  |  | 27 mL/min/kg | 23 ×10⁻⁶ cm/s | 
C[C@@H]1COC[C@@H](C)N1C(=O)c1cc(F)ccc1Oc1nncnc1N1CC2(CCN(CC3(C)CC3)CC2)C1 | 48 nM | 23 nM |  |  | 7 mL/min/kg | 8 ×10⁻⁶ cm/s | 
CON(C(=O)c1cc(F)ccc1Oc1nncnc1N1CC2(CCN(CC3(C)CC3)CC2)C1)C(C)C | 10 nM | 4 nM |  |  | 7 mL/min/kg | 30 ×10⁻⁶ cm/s | Vd [5]: 1.7 L/kg; clearance [6]: 78.7 mL/min/kg; AUC(0-inf) [7]: 212 ng·h/mL; half-life [10]: 0.48 h; hepatic extraction ratio at 8 h [11]: 0.874
C[C@@H]1CCC(=O)N1Cc1cc(F)ccc1Oc1nncnc1N1CC2(CCN(CC3(C)CC3)CC2)C1 | 40 nM | 4 nM |  |  | 3 mL/min/kg | 9 ×10⁻⁶ cm/s | Vd [5]: 5.48 L/kg; clearance [6]: 51.6 mL/min/kg; AUC(0-inf) [7]: 323 ng·h/mL; half-life [10]: 1.77 h; hepatic extraction ratio at 8 h [11]: 0.574
CC1(CN2CCC3(CC2)CN(c2ncnnc2Oc2ccc(F)cc2CN2C(=O)CC4CC42)C3)CC1 (racemic) | 112 nM | 6 nM |  |  | 4 mL/min/kg | 9 ×10⁻⁶ cm/s | Vd [5]: 4.14 L/kg; clearance [6]: 104 mL/min/kg; AUC(0-inf) [7]: 160 ng·h/mL; CLint scaled [14]: 4 mL/min/kg; half-life [10]: 0.64 h
CCN(C(=O)c1cc(F)ccc1Oc1cncnc1N1CC2(CCN(C[C@H]3CC[C@H](NS(=O)(=O)CC)CC3)CC2)C1)C(C)C [REVUMENIB] | 10 nM | 0.149 nM | 5000 nM | > 5000 nM |  |  | 
